Measured values taken from a melting point compilation (Tetko et al.; mined from patent text by program, amines drawn as free bases though some values may be those of a salt).

Row | melting point [°C] | Structure (SMILES)
1 | 197 to 198 | O=c1[nH]c2ccccc2cc1-c1csc(-c2cccnc2)n1
2 | 188 to 190 | Cc1cc(C)cc(NC(=O)c2cc(Br)ccc2O)c1
3 | > 260 | O=[N+]([O-])c1cccc(C2C3=C(CCCS3)NC3=C2SCCC3)c1
4 | 186 to 188 | Cn1c(COc2ccc(CC3SC(=O)NC3=O)cc2)nc2ccc(Oc3ccc(NC(=S)Nc4cccc5ccccc45)cc3)cc21 (stereo not given)
5 | 156 to 157 | CN1CCN(CCn2c3ccccc3c(=O)c3ccccc32)CC1
6 | 184 to 186 | COC1CC2(C)C(CCC3C4CC(C)=C(C(C)=O)C4(C)CC(=O)C32)CC1O (stereo not given)
7 | 124 to 125 | CNC(=O)Cc1ccc(O)cc1
8 | 156 to 158 | Nc1cc2c(cc1N)OCOC2
9 | 176 | O=c1ccc2cc([C@H](c3cccc(C(F)(F)F)c3)n3cncn3)ccc2[nH]1
10 | 175 to 178 | CCOC(=O)CSc1nccc(NCc2ccc(Cl)cc2)n1
11 | 88 | O=[N+]([O-])c1nccn1COC(CO)CO
12 | 111 | COc1ccc(-c2nn(-c3ccsc3)c3c(Cl)cccc23)cc1
13 | 142 to 143 | CC(C)c1cccc(C(C)C)c1N=C(c1ccccc1)N(CC(=O)c1ccccc1)c1c(C(C)C)cccc1C(C)C
14 | 73 to 75 | CC1CN(c2ccc([N+](=O)[O-])cc2Cl)C(=O)O1 (stereo not given)
15 | 189 to 191 | O=[N+]([O-])c1cccc(-c2csc(NS(=O)(=O)c3ccc(Cl)c(Cl)c3)n2)c1
16 | 210 to 211 | Cc1cc(C)c(C)c(COc2cccc(-c3ccoc3C(=O)NNC(=O)c3ccc(O)c(C#N)c3)c2)c1C
17 | 210 to 214 | CCCc1c(OCc2cccn3c(=O)c(CCC(=O)O)cnc23)ccc(C(C)=O)c1O
18 | 123 to 124 | CC(=O)OC1OC(COC(=O)c2ccccc2)CC(OC(=O)c2ccccc2)C1OC(=O)c1ccccc1 (stereo not given)
19 | 96 | Nc1cc(C(F)(F)F)cc(N)c1Cl
20 | 187 to 188 | C=CCN(C(=O)c1cnc(N2CC(C)(C)NC2=O)nc1N)c1cccc(C(F)(F)F)c1
21 | 168 to 171 | CCCCCCOc1c(OC)cc(N)c2ncccc12
22 | 185 to 187 | NC(=S)Nc1cc(F)ccc1-c1ccccc1
23 | 240 to 241 | Cc1ccc(Cc2c[nH]c(=S)[nH]c2=O)cn1
24 | 253 to 255 | O=C(O)C1=Cc2cc(Cl)c(Oc3ccc4cc(Br)ccc4c3)cc2OC1C(F)(F)F (stereo not given)
25 | > 270 | Cc1ccc(C)n1-c1cc2c(cc1C(F)(F)F)[nH]c(=O)c(=O)n2CC(=O)O

Row | melting point [°C] | Structure (SMILES)
26 | 114 to 116 | CN(CCN1CCN(c2cccc3c2OCCO3)CC1)c1cnn(C)c(=O)c1Cl
27 | 89 to 91 | O=C(O)CCCCCOc1ccccc1C(=O)c1ccccc1O
28 | 83 | CCCCc1nc2c(=O)n(Cc3ccc(-c4ccccc4C#N)cc3)ccc2n1Cc1ccc(-c2ccccc2C#N)cc1
29 | 190 | COc1ccc(-c2ccc3cc(OC)ccc3c2)cc1
30 | 182 to 185 | COC(=O)c1cc(CO)ccc1S(=O)(=O)NC(=O)Nc1nc(OC)cc(OC)n1
31 | 93 | CCOn1c(CC)n[nH]c1=O
32 | 137 to 138 | C#CCOc1cc(NN=C2CCCCN2C(=O)OC)c(Cl)cc1Cl
33 | 139 to 140 | O=c1cc(NCC2CCCO2)oc2c1ccc1ccccc12 (stereo not given)
34 | 248 | Cc1c(C(=O)O)ncn1Cc1ccc2oc(-c3ccccc3-c3nnn[nH]3)c(Br)c2c1
35 | 111 to 115 | CCCc1c(OCCCOc2ccc(-c3coc(C)n3)c(OC)c2CCC)ccc2c1OC(C(=O)O)CC2 (stereo not given)
36 | 93 to 94 | COc1ccc(CC(=O)NC(NC(=NC#N)Nc2cc(C)ccc2C)C(C)(C)C)cc1OC (stereo not given)
37 | 199 to 201 | CC(=O)NCC1CN(c2ccc(N3CCN(C(=O)COC(C)=O)CC3)c(F)c2)C(=O)O1 (stereo not given)
38 | 268 to 269 | O=c1[nH]sc2nc(N3CCCCC3)ncc12
39 | 230 to 231 | Oc1ccc(-c2cn(-c3ccncc3)c(-c3ccc(F)cc3)n2)cc1
40 | 66 to 69 | CCCCCCCCCCCCCCC(F)(F)P(=O)(O)O
41 | 200 to 202 | CC(C)OC(=O)C=Cc1cc(N2C(=O)CC(C(F)(F)F)N(C)C2=O)ccc1Cl (stereo not given)
42 | 142 to 144 | O=C(NCc1ccccc1Cl)C1Cc2ccccc2N1S(=O)(=O)c1ccc(-c2cccc(C(F)(F)F)c2)cc1 (stereo not given)
43 | 76 | CC(C)c1ccc(C=O)c(=O)c(O)c1
44 | 110 to 112 | CCCCC(Cc1ccc(OCCCN(C)C(=O)c2ccc(-c3ccccn3)cc2)cc1)C(=O)O (stereo not given)
45 | 185 to 186 | Nc1c(-c2ccc(-c3nnco3)cc2)nnn1-c1ccc(C(F)(F)F)cc1F
46 | 256 to 258 | CCCCc1c(-c2ccncc2)[nH]c(-c2ccncc2)c1C(=O)OCC
47 | 53 to 54 | COC(=O)CC1(O)C=CC(=O)C=C1
48 | 237 | Cc1cc(-c2cccc(C3=Nc4cc(O)c(-c5ccccc5F)cc4NC(=O)C3)c2)on1
49 | 129 | C#CCOC(=O)C1=C(C)NC(C)=C(C(=O)OCC)C1c1ccccc1C (stereo not given)
50 | 220 to 222 | CC(C)n1nc(-c2cnc(N)nc2-c2cccc(F)c2)ccc1=O

Row | melting point [°C] | Structure (SMILES)
51 | 90 to 91 | COC(=O)n1c(Cl)nc2c(C)cccc21
52 | 93 to 95 | CCCC(NS(=O)(=O)c1ccc(Cl)cc1)C(=O)Nc1ccc(CC(=O)OCC)cc1 (racemic)
53 | 169 | CC(=O)c1ccccc1NC(C(N)=O)c1c(Cl)cccc1Cl (stereo not given)
54 | 152 to 155 | CCc1sc(-c2cc[nH]n2)c2c1C(=O)CC(C)(C)C2
55 | 124 to 126 | COc1ccc(CS(=O)C(C)(C)C)cc1 (stereo not given)
56 | 169 to 171 | CCOC(=O)Cc1csc2nc(C(=O)NCc3cccc(OC)c3)[nH]c(=O)c12
57 | 172 to 174 | CC(=O)COc1ccn2nc(-c3ccccc3)c(-c3ccc(=O)n(C(C)C)n3)c2c1
58 | 206 | CCc1ccnc(C(=O)c2[nH]c3ccc(CC)cc3c2CC(=O)O)c1
59 | 109 to 111 | CN1C(=O)CC[C@]2(C)c3ccc(-c4cccc(NC(c5ccccc5)c5ccccc5)c4)cc3CC[C@@H]12
60 | 109 to 111 | CN(C)C=Nc1ccc(-n2ncnc2-c2ccccc2)cc1
61 | 127 to 130 | CC(C)(C)OC(=O)N1CCN(C2=Nc3ccccc3Sc3ccccc32)CC1
62 | 187 to 188 | Cn1ccnc1N1CCC(c2ccc(N)cc2)CC1
63 | 59 to 61 | CCOC(=O)C(C)ON=C(C)C (stereo not given)
64 | 105 to 107 | CCNC(=O)n1nc(Oc2ccc([N+](=O)[O-])cc2)cc1C
65 | 206 to 207 | O=C1CC(c2cccc(-c3nc(CCl)co3)c2)=Nc2ccc(-n3cccc3)cc2N1
66 | 82 to 83 | C=CCN1CCCCNC1=C[N+](=O)[O-]
67 | 154 to 155 | O=[N+]([O-])c1ccc2c(c1)CN(C(c1ccccc1)c1ccccc1)C2
68 | 329 to 330 | CC(C)(C)NC(=O)Nc1nc2nc(N)ncc2cc1-c1c(Cl)ccc(Cl)c1Cl
69 | 35 to 35.5 | CCCCCC(=O)COS(=O)(=O)c1ccc(OCC)cc1
70 | 187 to 188 | CCCn1c(=O)c2c(nc(/C=C/c3ccc(O)c(OC)c3)n2C)n(CCC)c1=O
71 | 87 to 92 | CS(=O)(=O)Nc1ccc2c(c1)C(=O)C(Br)CC2 (stereo not given)
72 | 194 to 195 | N#CC(=C(C#N)c1ccc(F)cc1)c1ccc(F)cc1
73 | 223 | CC(=O)Nc1ccc(CCN(C)C)c2cn[nH]c12
74 | 98 to 99 | OCc1cccc(-c2nn(Cc3ccccc3)c3ccccc23)c1
75 | 222 to 225 | CCCCc1ncc(CC(NC(=O)C(c2ccccc2)c2ccccc2)C(=O)O)n1Cc1ccccc1Cl (stereo not given)

Row | melting point [°C] | Structure (SMILES)
76 | 159 to 161 | OCc1n[nH]c(-c2ccc(CN3CCCCCC3)s2)n1
77 | 226 to 227 | COc1ccc(-c2c(C)nc(N)nc2C2CCN(C(=O)c3ccccc3)CC2)cc1
78 | 159 to 162 | N#Cc1cccc(NC(C(=O)O)c2ccccc2)c1 (stereo not given)
79 | 153 to 156 | CCOC(=O)c1ccc(Cc2ccc(O)cc2)cn1
80 | 229 to 230 | O=C1Nc2ccccc2CCCC1N1C(=O)c2ccccc2C1=O (stereo not given)
81 | 71 to 74 | COC(=O)C1CC(=O)N(c2ccc(C)cc2)C1 (stereo not given)
82 | 196 to 197 | CCCc1nn(C)c2c(=O)[nH]c(-c3cc(C(=O)N4CCN(C)CC4)ccc3OCC)nc12
83 | 168 to 170 | O=C(O)CC1(C(=O)O)CCSc2ccccc21 (stereo not given)
84 | 92.7 | O=C(c1cccc(Cl)c1)c1ccnc2ccccc12
85 | 86 to 87 | COc1ccc2oc(C(=O)CBr)cc2c1
86 | 105 to 106 | COc1cc(C2CCCCC2)ccc1C(O)CCC(=O)O (stereo not given)
87 | 200 to 202 | COC(=O)c1cc(-c2ccccc2Cl)c(=O)n2ncc3ccc(Cl)cc3c12
88 | 147 to 149 | CCc1c(-c2ccc(OCc3ccccc3)cc2)c2cc(C(C)=O)c3ccc(OCc4ccccc4)c1n32
89 | 215 to 217 | COc1cc2c(cc1OC)[C@@H]1CN(C)CC[C@@H]1N=C2c1cccc(C(F)(F)F)c1 (relative stereo)
90 | 249 to 250 | C=Cc1cc(O)cc2nc(-c3ccc(O)cc3)oc12
91 | 132 to 134 | CCCCCCCCCCCCCCC(O)C(O)C(N)CO (stereo not given)
92 | 125 to 126 | N#Cc1ccc(OCC[C@@H](NC(=O)OCc2ccccc2)C(=O)OC(c2ccccc2)c2ccccc2)cc1
93 | 227 to 242 | COc1cc2c(cc1Nc1ncc(Cl)c(Nc3ccc(N4CCOCC4)cc3)n1)CCN(CC(=O)N(C)C)CC2
94 | 162 | Cc1c(NC(=O)c2ccc(OC[C@@H]3CCCO3)cc2)ccc2c1cc(CNCC(C)C)n2C
95 | 171 | Cn1ccc2cc(NC(=O)/C=C/c3ccc(C(C)(C)C)cc3)ccc21
96 | 62 to 65 | CCOC(=O)c1c(Br)cnn1-c1c(Cl)cccc1Cl
97 | 127 to 131 | OC1CCCCC1n1ccnc1 (stereo not given)
98 | 124 | CC(C)C[C@@H](/C=C/CCO)NP(=O)(c1ccccc1)c1ccccc1

Row | Structure (SMILES) | melting point [°C]
99 | CC(NC(=O)Cc1cc(F)cc(F)c1)C(=O)C1(N)N=C(c2ccccc2F)c2ccccc2N(C)C1=O (stereo not given) | 185 to 188
100 | CN(C)C1(c2ccccc2)CCC2(OCCc3c2[nH]c2ccc(F)cc32)C(F)C1 (stereo not given) | 237 to 242
